From ChEMBL document CHEMBL1127830, “A new photoaffinity analog of cGMP: potent inhibitor of cyclic nucleotide phosphodiesterase” (J Med Chem, 1994)

Key:
[1] = Inhibition of human platelet cAMP phosphodiesterase
[2] = Inhibition of rat bladder dome cAMP phosphodiesterase
[3] = Inhibition of rat bladder dome cGMP phosphodiesterase

IC50 [1]: 3.4 µM | IC50 [2]: 15.8 µM | IC50 [3]: 0.3 µM
SMILES: NC1=NC(=O)C2N=CN([C@@H]3O[C@@H]4COP(=O)(O)O[C@H]4[C@H]3OC(=O)c3ccc(C(=O)c4ccccc4)cc3)C2=N1 (stereo partly drawn)
